Measurements reported in PubChem BioAssay AID504322 (Emory University Molecular Libraries Screening Center, 2011).
The source made the active and inactive calls. How the calls were made is not given here.

Test system: CHOP reporter cell assay, percent of control
Assay: CHOP reporter inhibitor potency, dose response, cell-based (AID 504322);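 further: CHO cells carrying a CHOP reporter stimulated with tunicamycin to induce ER stress; potency is for inhibition of the stress-induced reporter signal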

Structure (SMILES) | IC50
Cc1cccc(/C=C/c2nc3ccccc3c(=O)[nH]2)c1 | > 10 µM (inactive)
COc1cccc(N2CCN(c3ncnc4c3[nH]c3ccccc34)CC2C)c1 (stereo not given) | 4.13 µM
Cc1nn(-c2ccccc2Cl)c(Cl)c1/C=N/Nc1nc2ccccc2s1 | < 0.16 µM
CC1CCN(C(=O)/C(=C/c2ccccc2Cl)c2ccccc2)CC1 | 3.83 µM (inactive)
CCCCCCn1c(=O)c(C(=O)N/N=C/c2cccc(F)c2)c(O)c2ccccc21 | 7.03 µM (inactive)
CN1CC(c2ccccc2)C2(SC(=S)N(Cc3ccco3)C2=O)C12C(=O)Nc1ccccc12 (stereo not given) | > 10 µM (inactive)
O=C(c1ccc(COc2ccc(Cl)cc2)o1)N1N=C(C(F)F)CC1(O)C(F)F (stereo not given) | 9.64 µM (inactive)
Cc1ccc(OCC(=O)N2CCN(c3nnc(-c4ccc(C)cc4)c4ccccc34)CC2)cc1 | 8.38 µM (inactive)
CNC(=O)c1nnsc1S(=O)(=O)c1ccc(Cl)cc1 | 4.03 µM
Cc1cc(/C=N/n2cnnc2)c(C)n1-c1ccc(OCc2ccc(Cl)cc2Cl)cc1 | < 0.16 µM (inactive)
Cc1ccc(-c2[nH]ncc2/C=N/n2c(COc3ccccc3)nc3ccccc3c2=O)cc1 | 3.18 µM (inactive)
O=C(Nc1ccccc1Cl)/C(Cl)=C(\Cl)S(=O)c1ccccc1 (stereo not given) | 2.4 µM
O=c1c(Cl)nc2cc(Cl)ccc2n1CCNc1ncc(C(F)(F)F)cc1Cl | 2.49 µM
COc1ccc(N=c2oc3ccc(OC)cc3cc2-c2nc3ccccc3[nH]2)cc1 | 9.72 µM (inactive)
O=C(Nc1ccc(-c2nc3ccccc3s2)cc1)C1=COCCO1 | 7.48 µM (inactive)
COc1cc(OC)cc(-c2nc3ccccc3c(=O)n2OC(=O)c2ccc(Br)cc2)c1 | > 10 µM (inactive)
CC(/C=C1\SC(=O)N(CCCC(=O)O)C1=O)=C\c1ccccc1 | < 0.16 µM
CCCCCCNC(=O)CC(c1ccccc1)c1cc(Br)ccc1O (stereo not given) | 3.52 µM
CCCOC(=O)c1ccc(Oc2cn[nH]c2-c2ccc(OC)cc2O)cc1 | 9.32 µM (inactive)
CCCOc1ccc(N2C(=O)CC(SC(=NC)Nc3ccc(F)cc3)C2=O)cc1 (stereo not given) | > 10 µM (inactive)
CN(CCCC[C@H](CNCc1ccc(-c2ccccc2)cc1)N1C[C@H](c2ccccc2)N(CCc2ccc(Cl)c(Cl)c2)C(=O)C1=O)Cc1ccc(-c2ccccc2)cc1 | 9.37 µM (inactive)
COCCn1c(=NC(=O)/C=C/c2cccs2)sc2cc(NC(C)=O)ccc21 | > 10 µM (inactive)
Cc1ccc2[nH]c3c(c2c1)CN(C(=O)CN1CCN(c2cccc(C)c2C)CC1)CC3 | 8.33 µM (inactive)
Cn1c2ccccc2c(=O)c2c(=O)n(C3CCCCCC3)c(C3CCCCC3)nc21 | 9.65 µM (inactive)

Structure (SMILES) | IC50
O=C(OCn1ncc(Br)c(Br)c1=O)c1c(F)cccc1F | 0.76 µM
Cc1cc(Nc2ccc(Cl)cc2)nc(NCc2ccccc2)n1 | > 10 µM (inactive)
Cc1cc(Nc2cccc([N+](=O)[O-])c2)n2c(nc3ccccc32)c1C#N | 4.08 µM (inactive)
CCN(CCO)c1ncnc2c1sc1nc(C(C)C)c3c(c12)CC(C)(C)OC3 | 9.63 µM (inactive)
Cc1ccc(-c2nn(-c3ccccc3)cc2/C=N/NC(=O)c2ccc(Br)o2)cc1 | 5.04 µM
COc1ccc(Cn2c(SCc3ccccc3C)nc3cc(OC)c(OC)cc3c2=N)cc1 | 8.86 µM (inactive)
CC1CCC(n2c(=S)[nH]c3ccccc3c2=O)CC1 (stereo not given) | > 10 µM (inactive)
CCCCCCCn1c(=O)c(C(=O)Nc2cnccn2)c(O)c2ccccc21 | 3.68 µM
CC1(c2ccccc2)CC(C)(C)n2c(O)c(C3=NC(=S)NC3=O)c3cccc1c32 (stereo not given) | 9.76 µM (inactive)
CNc1ccc2oc(C[C@H]3O[C@@]4(CC[C@H]3C)O[C@H]([C@H](C)C(=O)c3ccc[nH]3)[C@H](C)C[C@H]4C)nc2c1C(=O)O | < 0.16 µM
Cc1ccccc1OCc1n(CC(=O)OC2CC(C)CCC2C(C)C)c2ccccc2[n+]1C (stereo not given) | > 10 µM (inactive)
Cc1nc(Nc2ccc(F)cc2)[nH]c(=O)c1CCC(C)C | 2.43 µM
Cc1cccc(/C=N/Nc2ccc3ccccc3n2)c1 | > 10 µM (inactive)
C=C(C)COc1ccc(-c2[nH]ncc2Oc2ccccc2OCC)c(O)c1 | 1.94 µM
Cc1ccc(NC(=O)NC(=O)CN2C(=O)NC3(CCCCCCC3)C2=O)c(C)c1 | 9.53 µM (inactive)
Cc1ccc(/C=N/NC(=O)CSCc2ccc(Cl)cc2)cc1 | 9.83 µM (inactive)
O=C1C(Cl)=C(Nc2ccccc2)C(=O)c2ccccc21 | > 10 µM (inactive)
COc1cc(OC)c(OC)cc1/C=N/Nc1ncnc2c1[nH]c1ccccc12 | 9.19 µM (inactive)
C=C(C)COc1ccc(-c2n[nH]c(C)c2-c2ccc(Br)cc2)c(O)c1 | 9.53 µM (inactive)
CN(C(=O)CCl)C1CCCc2ccccc21 (stereo not given) | > 10 µM (inactive)
Cc1cccc(N2CCN(C(=O)CS(=O)(=O)Cc3nc(-c4ccccc4F)oc3C)CC2C)c1 (stereo not given) | > 10 µM (inactive)
FC(F)(F)c1cccc(CN2CCC(c3cc(-c4cccs4)n[nH]3)CC2)c1 | 9.4 µM (inactive)
Cc1cc(C)c2nc(C(F)(F)F)c(C#N)c(N)c2c1 | 8.25 µM (inactive)
C=CCn1c(C)cc(C2=NNC(=NCC)SC2)c1C | < 0.16 µM

Structure (SMILES) | IC50
Fc1cccc(-c2nnn3c2nc(Cl)c2ccccc23)c1 | 7.37 µM (inactive)
Nc1nnnn1/N=C/C(Br)=C/c1ccccc1 | 9.72 µM (inactive)
Cc1ccc(OCC(=O)N/N=C/c2cn[nH]c2-c2ccc(Cl)c(Cl)c2)cc1 | 6.3 µM (inactive)
O=C(CN1CCN(c2ncc(C(F)(F)F)cc2Cl)CC1)NCCNc1ncc(C(F)(F)F)cc1Cl | 3.88 µM
COc1cc(OC)nc(-n2ncc(Br)c(Br)c2=O)n1 | 1.93 µM
CCCCCCn1c(N2CCC(C)CC2)nc2c1c(=O)[nH]c(=O)n2C | 5.4 µM (inactive)
CCN(CC)CCn1c(SCC(=O)Nc2ccc(F)cc2)nc2c(sc3ccccc32)c1=O | > 10 µM (inactive)
CCCCCCn1c(CN2CCN(Cc3ccccc3)CC2)nc2c1c(=O)n(C)c(=O)n2C | 6.9 µM (inactive)
CN1CCc2c(sc(NC(=O)c3cc4cc([N+](=O)[O-])ccc4s3)c2C(N)=O)C1 | 4.6 µM
COc1ccc(-c2[nH]ncc2N=Nc2cc(C)cc(C)c2)cc1 | 9.27 µM (inactive)
COC(=O)c1ccc2c(c1)C(C)(C)C(/C=C/c1ccccc1O)=[N+]2C | > 10 µM (inactive)
O=C1C(Cl)=C(N2CCCCC2)C(=O)C(Cl)=C1c1cnc(N2CCCCC2)s1 | 9.7 µM (inactive)
C=C(C)Cn1c(N2CCC(Cc3ccccc3)CC2)nc2c1c(=O)[nH]c(=O)n2C | 8 µM (inactive)
O=[N+]([O-])c1ccc(/C=N/n2c(C3CCCCC3)n[nH]c2=S)cc1 | 9.52 µM (inactive)
C(=N\Nc1ncnc2sc3c(c12)CCC3)/c1cccs1 | 8.89 µM (inactive)
O=C1C=CC(=O)N1N(c1ccccc1)c1ccccc1 | > 10 µM (inactive)
O=C1C(N2CCOCC2)=C(n2nnc3ccccc32)C(=O)c2ccccc21 | 9.64 µM (inactive)
O=C(COC(=O)Cc1c(Cl)cccc1Cl)Nc1ccc(OC(F)(F)F)cc1 | > 10 µM (inactive)
O=C(Nc1ccccc1)Nc1cc(OCC(F)(F)F)cc(OCC(F)(F)F)c1 | 2.34 µM
O=C(N/N=C/c1ccccn1)c1cc(-c2ccc3ccccc3c2)n[nH]1 | > 10 µM (inactive)
FC(F)(F)c1ccc(/C=N/NC(=S)NC2CCCCC2)cc1 | 5.03 µM
CC(C)C(=O)N1CCC(CN=Cc2c(O)n(C3CCCCC3)c(=O)n(C3CCCCC3)c2=O)CC1 | 9.9 µM (inactive)
